Assay [1] concerns the target T1, rM4 receptors (Rattus norvegicus, UniProt P08485).
T1 construct: expressed in transfected cells; host or cells: CHO cells
T1 sequence (P08485 1-478): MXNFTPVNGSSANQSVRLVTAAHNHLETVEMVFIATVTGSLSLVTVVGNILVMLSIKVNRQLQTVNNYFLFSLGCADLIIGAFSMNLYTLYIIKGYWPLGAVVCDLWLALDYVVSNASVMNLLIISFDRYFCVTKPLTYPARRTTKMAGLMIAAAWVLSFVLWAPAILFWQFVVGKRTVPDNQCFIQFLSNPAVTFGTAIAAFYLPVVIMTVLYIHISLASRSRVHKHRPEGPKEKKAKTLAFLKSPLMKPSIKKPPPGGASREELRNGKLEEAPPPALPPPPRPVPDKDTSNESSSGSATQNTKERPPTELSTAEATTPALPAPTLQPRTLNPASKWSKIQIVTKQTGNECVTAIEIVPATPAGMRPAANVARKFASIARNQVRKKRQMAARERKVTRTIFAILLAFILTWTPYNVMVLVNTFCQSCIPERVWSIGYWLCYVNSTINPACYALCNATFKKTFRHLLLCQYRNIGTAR
Briefly: Rat M4 PAM PERK assay (CHO cells, TR-FRET, with EC20 acetylcholine). Format: cell-based. The procedure:
(§1) Chinese hamster ovary (CHO) cells expressing either hM4 or rM4 receptors were frozen in assay ready vials (5×10^6 cells/vial) after bulking-up in culture. The day before an assay, vial(s) were thawed and cells seeded in 384 well white proxiplates at 1000/well for hM4 cells and at 2000/well for rM4 cells, in 10 μL of growth media (Hams/F12 with glutamax and 10% FCS) and incubated overnight at 37° C./5% CO2.
(§2) On the following morning, the growth media was removed by ‘flicking out’ over a bin, patting the inverted plate onto tissue, and then replacing with 10 μL of wash media (Hams/F12 with glutamax and 8 mM HEPES, NB: serum free). Then, the wash media was removed in the same way and replaced with 8 μL/well of the serum free media. Plates were then re-incubated for a further 4 hours at 37° C./5% CO2.
(§3) Compounds for testing were solubilized to 10 mM in DMSO and compound addition plates, consisting of ten-point concentration response curves (CRC) in duplicate points (10 μM top concentration, ½ log dilution series), were prepared by acoustic dispensing and the compound management group.
(§4) After the 4-hour incubation in serum free media, a 4 μL aliquot of the 3×compound solution containing an EC20 of acetylcholine (10 nM final concentration) was added to the cell plate using a 384 well plate to plate transfer. Then, the plate lid was replaced, and the cells incubated for 5 mins at 37° C./5% CO2. Following this final incubation, all cellular processes were stopped by the addition of 4 μL/well of lysis and blocking buffer and plates were incubated for 30 minutes at RT on an orbital shaker (gentle setting). Then, a final addition of 4 μL/well of antibody detection mix, containing both the Europium-Cryptate (donor) and d2 (acceptor) tagged detection components, was added followed by a further 2-hour incubation at RT, and then the plate was read using a TR-FRET (time resolved fluorescence resonance energy transfer) based protocol.

The target in assay [2] is T2, hM4 receptors (Homo sapiens, UniProt P08173).
T2 construct: expressed in transfected cells; host or cells: CHO cells
T2 sequence (P08173 1-479): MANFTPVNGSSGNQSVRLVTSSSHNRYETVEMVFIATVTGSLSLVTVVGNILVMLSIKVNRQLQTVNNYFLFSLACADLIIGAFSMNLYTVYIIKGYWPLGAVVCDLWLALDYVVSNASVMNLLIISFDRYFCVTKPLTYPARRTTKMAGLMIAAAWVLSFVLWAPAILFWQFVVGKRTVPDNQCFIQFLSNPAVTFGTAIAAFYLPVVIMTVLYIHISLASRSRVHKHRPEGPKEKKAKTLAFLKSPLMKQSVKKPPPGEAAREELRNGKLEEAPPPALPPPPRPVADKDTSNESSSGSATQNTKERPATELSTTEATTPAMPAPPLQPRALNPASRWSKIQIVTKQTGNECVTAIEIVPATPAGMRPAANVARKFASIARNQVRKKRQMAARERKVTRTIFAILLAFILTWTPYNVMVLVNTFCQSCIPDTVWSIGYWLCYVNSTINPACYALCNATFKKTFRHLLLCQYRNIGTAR
Briefly: Human M4 PAM PERK assay (CHO cells, TR-FRET, with EC20 acetylcholine). Type of assay: cell-based. The method, then:
as §1, §2, §3, §4
A general note: TR-FRET usually uses a lanthanide donor and a delayed reading to cut background.

As to `Cc1c2c(n(C)c(=O)c1F)CN(C(=O)CC1CN(c3cccc(C(F)(F)F)c3F)C1)C2` [Compound I-86], the EC50 in assay [1] and in assay [2] was 200 to 1000 nM each time.
With `Cc1c2c(n(C)c(=O)c1F)CN(C(=O)CC1CN(c3cccc(F)c3F)C1)C2` [Compound I-87], the EC50 in assay [1] was 50 to 200 nM; in assay [2] it was less than 50 nM.
For `Cc1c2c(n(C)c(=O)c1F)CN(C(=O)CC1CN(c3ccc(F)c(C(F)(F)F)c3)C1)C2` [Compound I-89], in that order: 50 to 200 nM and 50 to 200 nM.
For `Cc1c2c(n(CC(F)(F)F)c(=O)c1Cl)CN(C(=O)CC1CN(c3cccnc3)C1)C2` [Compound I-93, 3-Chloro-4-methyl-6-(2-(1-(pyridin-3-yl)azetidin-3-yl)acetyl)-1-(2,2,2-trifluoroethyl)-1,5,6,7-tetrahydro-2H-pyrrolo[3,4-b]pyridin-2-one], the EC50 in assay [1] and in assay [2] was 50 to 200 nM each time.
Take `Cc1c2c(n(CC(F)(F)F)c(=O)c1Cl)CN(C(=O)CC1CN(c3ccccc3)C1)C2` [Compound I-94]: the EC50 in assay [1] and in assay [2] was 200 to 1000 nM throughout.
On to `Cc1c2c(n(CC(F)(F)F)c(=O)c1Cl)CN(C(=O)CC1CN(c3cncnc3)C1)C2` [Compound I-96], for which the results for the EC50 in assay [1] and in assay [2] were 200 to 1000 nM and 50 to 200 nM, respectively.
For `COc1c2c(n(C)c(=O)c1C)CN(C(=O)CC1CN(c3ccnc(C(F)(F)F)c3)C1)C2` [Compound I-97, 4-Methoxy-1,3-dimethyl-6-(2-(1-(2-(trifluoromethyl)pyridin-4-yl)azetidin-3-yl)acetyl)-1,5,6,7-tetrahydro-2H-pyrrolo[3,4-b]pyridin-2-one], in that order: 200 to 1000 nM and less than 50 nM.
In the case of `COc1c2c(n(C)c(=O)c1C)CN(C(=O)CC1CN(c3ccncn3)C1)C2` [Compound I-98], the EC50 is more than 1000 nM in assay [1] and less than 50 nM in assay [2].
As to `Cc1cc(=O)n(CC2CC2)c2c1CN(C(=O)CC1CN(c3ccnc(C(F)(F)F)c3)C1)C2` [Compound I-101, 1-(Cyclopropylmethyl)-4-methyl-6-(2-(1-(2-(trifluoromethyl)pyridin-4-yl)azetidin-3-yl)acetyl)-1,5,6,7-tetrahydro-2H-pyrrolo[3,4-b]pyridin-2-one], the EC50 in assay [1] and in assay [2] was 200 to 1000 nM in each case.
With `Cc1cc(=O)n(C2CC2)c2c1CN(C(=O)CC1CN(c3ccnc(C(F)(F)F)c3)C1)C2` [Compound I-103, 1-Cyclopropyl-4-methyl-6-(2-(1-(2-(trifluoromethyl)pyridin-4-yl)azetidin-3-yl)acetyl)-1,5,6,7-tetrahydro-2H-pyrrolo[3,4-b]pyridin-2-one], the EC50 is more than 1000 nM in assay [1] and 200 to 1000 nM in assay [2].
As to `CSc1c2c(n(C)c(=O)c1C)CN(C(=O)CC1CN(c3ccnc(C(F)(F)F)c3)C1)C2` [Compound I-104, 1,3-Dimethyl-4-(methylthio)-6-(2-(1-(2-(trifluoromethyl)pyridin-4-yl)azetidin-3-yl)acetyl)-1,5,6,7-tetrahydro-2H-pyrrolo[3,4-b]pyridin-2-one], the EC50 in assay [1] was more than 1000 nM; in assay [2] it was 200 to 1000 nM.
`Cc1cc(=O)n(CC(F)(F)F)c2c1CN(C(=O)CC1CN(c3ccc(C(F)(F)F)cc3)C1)C2` [Compound I-105, 4-Methyl-1-(2,2,2-trifluoroethyl)-6-(2-(1-(4-(trifluoromethyl)phenyl)azetidin-3-yl)acetyl)-1,5,6,7-tetrahydro-2H-pyrrolo[3,4-b]pyridin-2-one]: the values for the 50% effective concentration (EC50) in assay [1] and in assay [2] were 200 to 1000 nM and more than 1000 nM, respectively.
For `CCc1c(C)c2c(n(C)c1=O)CN(C(=O)CC1CN(c3ccnc(C(F)(F)F)c3)C1)C2` [Compound I-107, 3-Ethyl-1,4-dimethyl-6-(2-(1-(2-(trifluoromethyl)pyridin-4-yl)azetidin-3-yl)acetyl)-1,5,6,7-tetrahydro-2H-pyrrolo[3,4-b]pyridin-2-one], in that order: more than 1000 nM and 50 to 200 nM.
For `Cc1c2c(n(C)c(=O)c1C(F)(F)F)CN(C(=O)CC1CN(c3cccnc3)C1)C2` [Compound I-108, 1,4-Dimethyl-6-(2-(1-(pyridin-3-yl)azetidin-3-yl)acetyl)-3-(trifluoromethyl)-1,5,6,7-tetrahydro-2H-pyrrolo[3,4-b]pyridin-2-one], in that order: more than 1000 nM and 50 to 200 nM.
On to `Cc1c2c(n(C)c(=O)c1C1CC1)CN(C(=O)CC1CN(c3ccnc(C(F)(F)F)c3)C1)C2` [Compound I-109, 3-Cyclopropyl-1,4-dimethyl-6-(2-(1-(2-(trifluoromethyl)pyridin-4-yl)azetidin-3-yl)acetyl)-1,5,6,7-tetrahydro-2H-pyrrolo[3,4-b]pyridin-2-one], for which the values for the EC50 in assay [1] and in assay [2] were 200 to 1000 nM and 50 to 200 nM, respectively.
As to `Cc1c2c(n(C)c(=O)c1Br)CN(C(=O)CC1CN(c3ccnc(C(F)(F)F)c3)C1)C2` [Compound I-110, 3-Bromo-1,4-dimethyl-6-(2-(1-(2-(trifluoromethyl)pyridin-4-yl)azetidin-3-yl)acetyl)-1,5,6,7-tetrahydro-2H-pyrrolo[3,4-b]pyridin-2-one], the EC50 in assay [1] was 200 to 1000 nM; in assay [2], less than 50 nM.
Take `Cc1c2c(n(C)c(=O)c1C#N)CN(C(=O)CC1CN(c3ccnc(C(F)(F)F)c3)C1)C2` [Compound I-111, 1,4-Dimethyl-2-oxo-6-(2-(1-(2-(trifluoromethyl)pyridin-4-yl)azetidin-3-yl)acetyl)-2,5,6,7-tetrahydro-1H-pyrrolo[3,4-b]pyridine-3-carbonitrile]: the EC50 in assay [1] was in the range of 200 to 1000 nM; in assay [2], 50 to 200 nM.
In the case of `Cc1cc2c(n(C)c1=O)CN(C(=O)CC1CN(c3ccnc(C(F)(F)F)c3)C1)C2` [Compound I-112, 1,3-Dimethyl-6-(2-(1-(2-(trifluoromethyl)pyridin-4-yl)azetidin-3-yl)acetyl)-1,5,6,7-tetrahydro-2H-pyrrolo[3,4-b]pyridin-2-one], the EC50 is more than 1000 nM in assay [1] and 50 to 200 nM in assay [2].
`Cc1cc(=O)n(C)c2c1C(C)N(C(=O)CC1CN(c3ccnc(C(F)(F)F)c3)C1)C2` (centres unmarked) [Compound I-114]: the results for the EC50 in assay [1] and in assay [2] were 50 to 200 nM and less than 50 nM, respectively.

As usually defined, the EC50 is the concentration giving half of the maximal effect. Low values mean an effect from little substance, high ones a need for much substance.
